Experimental data from patent US12649722B2, “Herbicidal cinnoline derivatives” (SYNGENTA CROP PROTECTION AG, priority 2020, dated 2026).

Assays:
Assay type in all cases: in vivo
[1] = system: Ipornoea hederacea (IPOHE); test: Post-emergence Test, IPOHE; details: sprayed after 8 days cultivation, 1000 g/ha, evaluated after 13 days
Protocol: (§1) Seeds of a variety of test species are sown in standard soil in pots (Amaranthus retoflexus (AMARE), Solarium nigrum (SOLNI), Setaria faberi (SETFA), Lolium perenne (LOLPE), Echinochloa crus-galli (ECHCG), Ipornoea hederacea (IPOHE)). After 8 days cultivation under controlled conditions in a glasshouse (at 24° C./16° C., day/night; 14 hours light; 65% humidity), the plants are sprayed with an aqueous spray solution derived from the formulation of the technical active ingredient in acetone/water (50:50) solution containing 0.5% Tween 20 (polyoxyethylene sorbitan monolaurate, CAS RN 9005-64-5). Compounds are applied at 1000 g/ha unless otherwise stated. The test plants are then grown in a glasshouse under controlled conditions in a glasshouse (at 24° C./16° C., day/night; 14 hours light; 65% humidity) and watered twice daily. After 13 days the test is evaluated for the percentage damage caused to the plant. The biological activities are shown in the following table on a five-point scale (5=81-100%; 4=61-80%; 3=41-60%; 2=21-40%; 1=10-20%; 0=0%; −=not tested).

[2] = system: Setaria faberi (SETFA); test: Post-emergence Test, SETFA; details: sprayed after 8 days cultivation, 1000 g/ha, evaluated after 13 days
Protocol: as §1

[3] = system: Ipornoea hederacea (IPOHE); test: Pre-emergence Test, IPOHE; details: 1000 g/ha, evaluated after 13 days
[4] = system: Setaria faberi (SETFA); test: Pre-emergence Test, SETFA; details: 1000 g/ha, evaluated after 13 days
[5] = system: Amaranthus retoflexus (AMARE); test: Pre-emergence Test, AMARE; details: 1000 g/ha, evaluated after 13 days
[6] = system: ABUTH; test: Pre-emergence Test, ABUTH; details: 1000 g/ha, evaluated after 13 days
[7] = system: ABUTH; test: Post-emergence Test, ABUTH; details: sprayed after 8 days cultivation, 1000 g/ha, evaluated after 13 days
Protocol: [The procedure below names another target; the source lists this target under the same test.] as §1

[8] = system: ZEAMX; test: Pre-emergence Test, ZEAMX; details: 1000 g/ha, evaluated after 13 days
[9] = system: Echinochloa crus-galli (ECHCG); test: Pre-emergence Test, ECHCG; details: 1000 g/ha, evaluated after 13 days
[10] = system: ZEAMX; test: Post-emergence Test, ZEAMX; details: sprayed after 8 days cultivation, 1000 g/ha, evaluated after 13 days
Protocol: [The procedure below names another target; the source lists this target under the same test.] as §1

[11] = system: Echinochloa crus-galli (ECHCG); test: Post-emergence Test, ECHCG; details: sprayed after 8 days cultivation, 1000 g/ha, evaluated after 13 days
Protocol: as §1

[12] = system: Amaranthus retoflexus (AMARE); test: Post-emergence Test, AMARE; details: sprayed after 8 days cultivation, 1000 g/ha, evaluated after 13 days
Protocol: as §1

SMILES	percentage damage caused to the plant, IPOHE [1]	percentage damage caused to the plant, SETFA [2]	percentage damage caused to the plant, IPOHE [3]	percentage damage caused to the plant, SETFA [4]	percentage damage caused to the plant, AMARE [5]	percentage damage caused to the plant, ABUTH [6]	percentage damage caused to the plant, ABUTH [7]	percentage damage caused to the plant, ZEAMX [8]	percentage damage caused to the plant, ECHCG [9]	percentage damage caused to the plant, ZEAMX [10]	percentage damage caused to the plant, ECHCG [11]	percentage damage caused to the plant, AMARE [12]
C=Cc1cccc2c1c(=O)c(C(=O)O)nn2-c1ccc(OC(F)(F)F)cc1 [Compound P17, 4-oxo-1-[4-(trifluoromethoxy)phenyl]-5-vinyl-cinnoline-3-carboxylic acid]	0 (0=0%)	3 (3=41-60%)	0 (0=0%)	3 (3=41-60%)	2 (2=21-40%)	1 (1=10-20%)	1 (1=10-20%)	1 (1=10-20%)	2 (2=21-40%)	1 (1=10-20%)	3 (3=41-60%)	2 (2=21-40%)
CCOC(=O)c1nn(-c2ccc(OC(F)(F)F)cc2)c2cccc(CC=O)c2c1=O [Compound P18, ethyl 4-oxo-5-(2-oxoethyl)-1-[4-(trifluoromethoxy)phenyl] cinnoline-3-carboxylate]	1 (1=10-20%)	1 (1=10-20%)	0 (0=0%)	1 (1=10-20%)	0 (0=0%)	0 (0=0%)	1 (1=10-20%)	0 (0=0%)	0 (0=0%)	1 (1=10-20%)	1 (1=10-20%)	0 (0=0%)
O=C(O)c1nn(-c2ccc(OC(F)(F)F)cc2)c2cccc(-n3cc(Cl)cn3)c2c1=O [Compound P19]	2 (2=21-40%)	4 (4=61-80%)	0 (0=0%)	4 (4=61-80%)	0 (0=0%)	0 (0=0%)	1 (1=10-20%)	1 (1=10-20%)	3 (3=41-60%)	2 (2=21-40%)	3 (3=41-60%)	2 (2=21-40%)
O=C(O)c1nn(-c2ccc(OC(F)(F)F)cc2)c2cccc(-n3cc(C(F)(F)F)nn3)c2c1=O [Compound P21, 4-oxo-1-[4-(trifluoromethoxy)phenyl]-5-[4-(trifluoromethyl)triazol-1-yl]cinnoline-3-carboxylic acid]	0 (0=0%)	2 (2=21-40%)	1 (1=10-20%)	2 (2=21-40%)	1 (1=10-20%)	0 (0=0%)	1 (1=10-20%)	0 (0=0%)	1 (1=10-20%)	1 (1=10-20%)	0 (0=0%)	1 (1=10-20%)
O=C(O)c1nn(-c2ccc(OC(F)(F)F)cc2)c2cccc(-n3cc(C(F)(F)F)cn3)c2c1=O [Compound P22, 4-oxo-1-[4-(trifluoromethoxy)phenyl]-5-[4-(trifluoromethyl)pyrazol-1-yl]cinnoline-3-carboxylic acid]	1 (1=10-20%)	2 (2=21-40%)	0 (0=0%)	0 (0=0%)	2 (2=21-40%)	0 (0=0%)	1 (1=10-20%)	0 (0=0%)	0 (0=0%)	2 (2=21-40%)	0 (0=0%)	4 (4=61-80%)
O=C(O)c1nn(-c2ccc(OC(F)(F)F)cc2)c2cccc(N3CCCC3)c2c1=O [Compound P23, 4-oxo-5-pyrrolidin-1-yl-1-[4-(trifluoromethoxy)phenyl] cinnoline-3-carboxylic acid]	0 (0=0%)	0 (0=0%)	0 (0=0%)	0 (0=0%)	0 (0=0%)	0 (0=0%)	0 (0=0%)	0 (0=0%)	0 (0=0%)	0 (0=0%)	0 (0=0%)	0 (0=0%)
O=C(O)c1nn(-c2ccc(OC(F)(F)F)cc2)c2cccc(N3CCCCC3)c2c1=O [Compound P24, 4-oxo-5-(1-piperidyl)-1-[4-(trifluoromethoxy)phenyl] cinnoline-3-carboxylic acid]	0 (0=0%)	0 (0=0%)	0 (0=0%)	0 (0=0%)	0 (0=0%)	1 (1=10-20%)	1 (1=10-20%)	0 (0=0%)	1 (1=10-20%)	0 (0=0%)	0 (0=0%)	0 (0=0%)
O=C(O)c1nn(-c2ccc(OC(F)(F)F)cc2)c2cccc(N3CCOCC3)c2c1=O [Compound P25, 5-morpholino-4-oxo-1-[4-(trifluoromethoxy)phenyl] cinnoline-3-carboxylic acid]	0 (0=0%)	0 (0=0%)	0 (0=0%)	0 (0=0%)	0 (0=0%)	0 (0=0%)	0 (0=0%)	0 (0=0%)	0 (0=0%)	0 (0=0%)	0 (0=0%)	0 (0=0%)
CCOC(=O)c1nn(-c2ccc(OC(F)(F)F)cc2)c2cccc(N3CCOCC3)c2c1=O [Compound P26, ethyl 5-morpholino-4-oxo-1-[4-(trifluoromethoxy)phenyl] cinnoline-3-carboxylate]	0 (0=0%)	0 (0=0%)	0 (0=0%)	0 (0=0%)	0 (0=0%)	0 (0=0%)	0 (0=0%)	0 (0=0%)	0 (0=0%)	0 (0=0%)	1 (1=10-20%)	0 (0=0%)
CCOC(=O)c1nn(-c2ccc(OC(F)(F)F)cc2)c2cccc(N3CCCCC3)c2c1=O [Compound P27, ethyl 4-oxo-5-(1-piperidyl)-1-[4-(trifluoromethoxy)phenyl] cinnoline-3-carboxylate]	0 (0=0%)	0 (0=0%)	0 (0=0%)	0 (0=0%)	0 (0=0%)	0 (0=0%)	0 (0=0%)	0 (0=0%)	0 (0=0%)	0 (0=0%)	0 (0=0%)	0 (0=0%)
